The structures appear in SMILES notation. “Also recorded” adds a separate entry of the source. Where two headings read alike, the source gives them in different places.

Data set [1] deals with human recombinant FGFR1 catalytic domain protein (amino acid 308-731) (Homo sapiens (Human), UniProt P11362). In words: FGFR1 activity inhibition test (HTRF kinase assay). Type of data set: biochemical. As to conditions: 40 μM ATP. How it is done: (§1) The effect of the compounds of the present invention on the in vitro activity of FGFR was assessed by measuring the phosphorylation level of the substrate in a kinase reaction using the HTRF kinase assay kit (Table 1).
(§2) If the IC50 value of a compound is very low, the initial concentration of the compound can be lowered.
(§3) The IC50 value of the compound was calculated from the 10 concentration points using the XLfit software in Excel by the following formula: Y=Bottom+(Top−Bottom)/(1+10^((log IC50−X)*slope factor))
(§4) Where Y is the percentage of inhibition, Bottom is the bottom platform value of the S-curve, Top is the top platform value of the S-curve, X is the logarithm of the concentration of the compound to be tested, and slope factor is the slope coefficient of the curve.

The target in data set [2] is human recombinant FGFR2 catalytic domain protein (amino acid 400-821) (Homo sapiens (Human), UniProt P21802). In words: FGFR2 activity inhibition test (HTRF kinase assay). Type of data set: biochemical. As to conditions: 50 μM ATP. How it is done:
as §1, §2, §3, §4
For orientation: In TR-FRET formats the signal depends on donor and acceptor labels being close together.

Data set [3] addresses human recombinant FGFR3 catalytic domain protein (amino acid 399-806) (Homo sapiens (Human), UniProt P22607). Nature of the data set: FGFR3 activity inhibition test (HTRF kinase assay). Type of data set: biochemical. As to conditions: 90 μM ATP. The procedure: as §1, §2, §3, §4
Data set [4] has as its target human recombinant FGFR4 catalytic domain protein (amino acid 460-802) (Homo sapiens (Human), UniProt P22455). Nature of the data set: FGFR4 activity inhibition test (HTRF kinase assay). Type of data set: biochemical. As to conditions: 90 μM ATP. How it is done: as §1, §2, §3, §4
The next data set relates to Hep3B hepatoma cell line. Nature of the data set: Inhibition on the proliferation of Hep3B cells (luminescent cell viability assay). Type of data set: cell-based. As to conditions: Homo sapiens, 72 hours. The procedure:
The effect of the compounds of the present invention on cell proliferation of Hep3B hepatoma cell line was assessed using a luminescent cell viability assay (Table 2).
(§5) CellTilter-Glo reagent (Promega, Cat. No. G7572) consists of CTG lyophilized powder and CTG buffer. Before use, the lyophilized powder needs to be dissolved in the buffer.
(§6) After overnight incubation, 3 μL of DMEM diluted compound was added to each well, which was then gently centrifuged to mix well, and then the 384-well plate was placed in a 37° C., 5% CO2 incubator to continue the culture, and after 72 hours, the plate was taken out and allowed to stand at room temperature for 30 minutes, next added 15 μL of CTG reagent per well, which was warmed up to room temperature, the plate was shaken gently on a shaker for 3 minutes to ensure sufficient cell lysis, allowed to stand 10 minutes to stabilize the luminescence signal, and then read the luminescence signal with EnVision (Perkin Elmer).
as §4

For data set [5], the system named is RT4 bladder cancer cell line. Nature of the data set: Inhibition on the proliferation of RT4 cells (luminescent cell viability assay). The class given is cell-based. The following applies: Homo sapiens, RT-4, 72 hours. How it is done:
as §5, §6, §4
The effect of the compounds of the present invention on cell proliferation of the RT4 bladder cancer cell line was assessed using a luminescent cell viability assay (Table 2).
(§7) For the experimental method, please refer to the method for determining the inhibition on the proliferation of Hep3B cells.

Data set [6] has as its system SNU-16 gastric cancer cell line. In words: Inhibition on the proliferation of SNU-16 cells (luminescent cell viability assay). As to conditions: Homo sapiens, 72 hours. The class given is cell-based. How it is done: as §5, §6, §4
The effect of the compounds of the present invention on cell proliferation of SNU-16 gastric cancer cell line was assessed using a luminescent cell viability assay (Table 2).
as §7

Data set [7] deals with FGFR2-overexpressed SNU-16 gastric cancer cell line derived xenograft tumors. Type of data set: in vivo. The following applies: for TGI % (tumor growth inhibition) / mean tumor size: day 25. How it is done:
The cells were harvested in 90% confluence and no less than 90% viability, and then counted. […] Mice were inoculated subcutaneously into the right flank with 200 uL of 8×10^6 SNU-16 cells resuspended in 50% Matrigel (purchased from Corning). […] Dosing was initiated on day 0 and effects on tumor growth were evaluated by measuring the percentage of tumor growth inhibition (TGI) at the end of the study. Tolerability was assessed by body weight loss, lethality, and clinical signs of adverse treatment-related side effects. Tumor volume and body weight were measured twice per week during the administration period. The percentage of TGI was determined on day 25 after treatment. The difference between the mean value of tumor volume in the treatment group and that in the vehicle group was analyzed for significance using one-way ANOVA (followed by Dennett's test) at each time point and a P<0.05 was considered to be statistically significant.

human recombinant FGFR1 catalytic domain protein (amino acid 308-731), sequence (P11362 other isoform, or with tags, fused parts or gaps): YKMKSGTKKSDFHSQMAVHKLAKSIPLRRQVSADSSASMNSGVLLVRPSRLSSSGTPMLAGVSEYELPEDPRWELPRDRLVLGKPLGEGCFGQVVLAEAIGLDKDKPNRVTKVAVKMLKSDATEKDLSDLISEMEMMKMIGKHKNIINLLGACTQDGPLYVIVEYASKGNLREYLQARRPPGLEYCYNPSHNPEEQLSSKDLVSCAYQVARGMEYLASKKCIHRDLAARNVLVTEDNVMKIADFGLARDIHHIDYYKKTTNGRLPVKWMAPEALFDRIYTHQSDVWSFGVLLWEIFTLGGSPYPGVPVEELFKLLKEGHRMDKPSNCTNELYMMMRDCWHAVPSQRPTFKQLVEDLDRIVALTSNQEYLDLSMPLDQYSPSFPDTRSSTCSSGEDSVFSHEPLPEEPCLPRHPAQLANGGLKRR
human recombinant FGFR2 catalytic domain protein (amino acid 400-821), sequence (P21802 400-821): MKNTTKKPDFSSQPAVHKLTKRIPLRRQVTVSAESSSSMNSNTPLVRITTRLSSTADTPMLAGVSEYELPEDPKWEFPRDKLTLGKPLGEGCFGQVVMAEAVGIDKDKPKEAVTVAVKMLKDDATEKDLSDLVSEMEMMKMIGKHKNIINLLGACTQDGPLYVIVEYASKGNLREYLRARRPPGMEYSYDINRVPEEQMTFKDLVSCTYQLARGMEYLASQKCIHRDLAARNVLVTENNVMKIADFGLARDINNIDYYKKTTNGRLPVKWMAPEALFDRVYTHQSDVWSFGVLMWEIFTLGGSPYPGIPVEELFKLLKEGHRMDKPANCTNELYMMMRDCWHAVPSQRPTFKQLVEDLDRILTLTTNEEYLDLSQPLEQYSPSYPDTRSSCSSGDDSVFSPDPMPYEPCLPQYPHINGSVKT
human recombinant FGFR3 catalytic domain protein (amino acid 399-806), sequence (P22607 399-806): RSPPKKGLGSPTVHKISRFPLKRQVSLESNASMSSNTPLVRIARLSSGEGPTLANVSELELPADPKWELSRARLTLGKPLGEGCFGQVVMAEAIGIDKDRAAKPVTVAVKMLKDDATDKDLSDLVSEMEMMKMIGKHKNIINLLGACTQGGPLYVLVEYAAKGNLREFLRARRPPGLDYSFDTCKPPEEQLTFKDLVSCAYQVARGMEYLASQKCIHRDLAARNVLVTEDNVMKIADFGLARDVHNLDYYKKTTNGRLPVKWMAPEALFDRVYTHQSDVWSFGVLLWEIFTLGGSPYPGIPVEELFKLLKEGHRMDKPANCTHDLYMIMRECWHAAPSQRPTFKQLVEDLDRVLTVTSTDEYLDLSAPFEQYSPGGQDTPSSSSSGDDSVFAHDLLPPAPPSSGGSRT
human recombinant FGFR4 catalytic domain protein (amino acid 460-802), sequence (P22455 460-802): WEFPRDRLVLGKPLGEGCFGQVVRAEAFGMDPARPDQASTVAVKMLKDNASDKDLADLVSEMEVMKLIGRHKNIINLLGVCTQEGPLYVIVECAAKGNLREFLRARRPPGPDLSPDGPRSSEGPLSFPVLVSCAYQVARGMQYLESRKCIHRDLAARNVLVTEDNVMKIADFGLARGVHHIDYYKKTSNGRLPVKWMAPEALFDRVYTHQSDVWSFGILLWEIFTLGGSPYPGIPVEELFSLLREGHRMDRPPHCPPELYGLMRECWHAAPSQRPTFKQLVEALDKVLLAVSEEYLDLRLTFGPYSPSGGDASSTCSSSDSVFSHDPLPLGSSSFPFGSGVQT

Consider `C=CC(=O)N1CC[C@H](n2nc(C#Cc3cc(OC)cc(OC)c3)c(C(N)=O)c2NCCCN2CCOCC2)C1` [Compound 30, (S)-1-(1-acryloylpyrrolidin-3-yl)-3-((3,5-dimethoxyphenyl)ethynyl)-5-((3-morpholinopropyl)amino)-1H-pyrazole-4-carboxamide], for which the IC50 in data set [1] was 10 to 100 nM; in data set [2] it was under 10 nM; in data set [3], under 10 nM; in data set [4], 10 to 100 nM; in the data set with Hep3B hepatoma cell line, 10 to 100 nM; in data set [5], under 10 nM. In data set [6], this molecule came in with an IC50 of under 10 nM.

For the molecule `C=CC(=O)N1CC[C@H](n2nc(C#Cc3cc(OC)cc(OC)c3)c(C(N)=O)c2NCCO)C1` [Compound 29, (S)-1-(1-acryloylpyrrolidin-3-yl)-3-((3,5-dimethoxyphenyl)ethynyl)-5-((2-hydroxyethyl)amino)-1H-pyrazole-4-carboxamide], the IC50 in data set [1] was 10 to 100 nM; in data set [2] it was under 10 nM; in data set [3] it was under 10 nM; in data set [4], 10 to 100 nM; with Hep3B hepatoma cell line, under 10 nM; in data set [5], under 10 nM. In addition, the IC50 in data set [6] is under 10 nM.

On to `C=CC(=O)N1CC[C@H](n2nc(C#Cc3cc(OC)cc(OC)c3)c(C(N)=O)c2NCCN2CCOCC2)C1` [Compound 31, (S)-1-(1-acryloylpyrrolidin-3-yl)-3-((3,5-dimethoxyphenyl)ethynyl)-5-((2-morpholinoethyl)amino)-1H-pyrazole-4-carboxamide], for which the IC50 in data set [1] is 10 to 100 nM; in data set [2], under 10 nM; in data set [3], under 10 nM; in the data set on Hep3B hepatoma cell line it was 10 to 100 nM; in data set [5], under 10 nM; in data set [6], under 10 nM.

With `CC#CC(=O)N1CC[C@H](n2nc(C#Cc3cc(OC)cc(OC)c3)c(C(N)=O)c2N)C1` [Compound 10], the IC50 in data set [1] is 10 to 100 nM; in data set [4], 10 to 100 nM; in the data set with Hep3B hepatoma cell line, 10 to 100 nM; in data set [5] it was 10 to 100 nM; in data set [6], under 10 nM.

`C=CC(=O)N1CC[C@H](n2nc(C#Cc3cc(OC)cc(OC)c3F)c(C(N)=O)c2NC)C1` [Compound 22, (S)-1-(1-acryloylpyrrolidin-3-yl)-3-((2-fluoro-3,5-dimethoxyphenyl)ethynyl)-5-(methylamino)-1H-pyrazole-4-carboxamide]: the IC50 (in data set [1]; in data set [2]; in data set [3]; in data set [4]; in the data set on Hep3B hepatoma cell line; in data set [5]) was under 10 nM each time. This molecule also registered an IC50 in data set [6] of under 10 nM.

As for `C=CC(=O)N1CC[C@H](n2nc(C#Cc3cc(OC)cc(OC)c3)c(C(N)=O)c2NCC2CC2)C1` [Compound 26, (S)-1-(1-acryloylpyrrolidin-3-yl)-5-((cyclopropylmethyl)amino)-3-((3,5-dimethoxyphenyl)ethynyl)-1H-pyrazole-4-carboxamide], the IC50 in data set [1] is under 10 nM; in data set [2], under 10 nM; in data set [3] it was under 10 nM; in data set [4], under 10 nM; in the data set with Hep3B hepatoma cell line, 10 to 100 nM; in data set [5] it was under 10 nM. Moreover, in data set [6], the IC50 is under 10 nM.

As to `C=CC(=O)N1CC[C@H](n2cc(C(N)=O)c(C#Cc3cc(OC)cc(OC)c3)n2)C1` [Compound 1, (S)-1-(1-acryloylpyrrolidin-3-yl)-3-((3,5-dimethoxyphenyl)ethynyl)-1H-pyrazole-4-carboxamide], the IC50 (in data set [1]; in data set [2]; in data set [3]; in data set [4]; with Hep3B hepatoma cell line; in data set [5]) was 10 to 100 nM throughout. Besides, in data set [6], the IC50 fell in the range of 10 to 100 nM.

Take `C=CC(=O)N1CC[C@H](n2nc(C#Cc3cc(OC)cc(OC)c3)c(C(N)=O)c2NC)C1` [Compound 21, (S)-1-(1-acryloylpyrrolidin-3-yl)-3-((3,5-dimethoxyphenyl)ethynyl)-5-(methylamino)-1H-pyrazole-4-carboxamide]: the IC50 (in data set [1]; in data set [2]; in data set [3]; in data set [4]; with Hep3B hepatoma cell line; in data set [5]) was under 10 nM throughout. Moreover, the IC50 in data set [6] was under 10 nM. Moreover, the “TGI % (tumor growth inhibition)” value in data set [7] (0.3 mg/kg oral BID for 25 days) was 91.0%; in data set [7] (1 mg/kg oral BID for 25 days), 88.3%; in data set [7] (3 mg/kg oral BID for 25 days), 95.9%; in data set [7] (10 mg/kg oral BID for 25 days), 108%. Further, the mean tumor size in data set [7] (0.3 mg/kg oral BID for 25 days) is 240 mm^3; in data set [7] (1 mg/kg oral BID for 25 days) it was 261 mm^3; in data set [7] (3 mg/kg oral BID for 25 days), 200 mm^3; in data set [7] (10 mg/kg oral BID for 25 days), 103 mm^3. For the same molecule, the locomotor activities result in data set [7] (10 mg/kg BID) was “without significant decrease of locomotor activities”. Moreover, the “mean body weight loss” value in data set [7] (10 mg/kg BID) worked out at 11%. Besides, in data set [7] (0.3, 1, 3 and 10 mg/kg oral BID), the “anti-tumor activity (overall)” value is “dose-dependently reduced tumor size; also recorded: marked anti-tumor activities”. Besides, the body weight loss result in data set [7] (3, 1 and 0.3 mg/kg BID, during the study) is on record as “no body weight loss”. In addition, in data set [7] (3, 1 and 0.3 mg/kg BID, tumor-bearing animals), the tolerability result is on record as “well-tolerated”. Further, the “tolerability (overall summary)” value in data set [7] (tumor-bearing animals, summary of study) was “well-tolerated”.

`C=CC(=O)N1CC[C@H](n2nc(C#Cc3cc(OC)cc(OC)c3F)c(C(N)=O)c2N)C1` [Compound 17, (S)-1-(1-acryloylpyrrolidin-3-yl)-5-amino-3-((2-fluoro-3,5-dimethoxyphenyl)ethynyl)-1H-pyrazole-4-carboxamide]: the IC50 (in data set [1]; in data set [2]; in data set [3]; in data set [4]; in the data set on Hep3B hepatoma cell line; in data set [5]) was under 10 nM throughout. Besides, the 50% inhibitory concentration (IC50) in data set [6] was under 10 nM.

`C=CC(=O)N1CC[C@H](n2nc(C#Cc3cc(OC)cc(OC)c3)c(C(N)=O)c2N)C1` [Compound 7, (S)-1-(1-acryloylpyrrolidin-3-yl)-5-amino-3-((3,5-dimethoxyphenyl)ethynyl)-1H-pyrazole-4-carboxamide]: the IC50 (in data set [1]; in data set [2]; in data set [3]; in data set [4]; in the data set with Hep3B hepatoma cell line; in data set [5]) was under 10 nM throughout. The molecule also showed an IC50 in data set [6] of under 10 nM.

Take `C=CC(=O)N1CC[C@H](n2nc(C#Cc3cc(Cl)ccc3F)c(C(N)=O)c2NC)C1` [Compound 23, (S)-1-(1-acryloylpyrrolidin-3-yl)-3-((5-chloro-2-fluorophenyl)ethynyl)-5-(methylamino)-1H-pyrazole-4-carboxamide]: the IC50 in data set [1] is 10 to 100 nM; in data set [2], under 10 nM; in data set [3], under 10 nM; in data set [4], 10 to 100 nM; with Hep3B hepatoma cell line it was under 10 nM; in data set [5], 10 to 100 nM. The molecule also yielded an IC50 in data set [6] of under 10 nM.

Usually IC50 stands for the concentration needed to halve the response being measured.
